Reference: patent publication US10316017B2, “COT modulators and methods of use thereof” (Gilead Sciences, Inc., priority 2015, dated 2019)
Where two headings read alike, the source gives them in different places.

Legend:
[1] = tested on: TNFα production in LPS-stimulated human monocytes; test: Cot Monocyte TNFα Cell Based Assay; details: TNFα in LPS-stimulated human monocytes, read-out: EC50 TNF
In short: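 Cells at 5,000/well were pretreated with compound for 1 h at 37 °C (0.5% DMSO final), then stimulated with 50 pg/ml LPS for 4 h at 37 °C. Supernatant TNFα was measured by two-antibody TR-FRET after overnight room-temperature incubation; values are percent of control between unstimulated and stimulated wells.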

[2] = biological target: T1, human Cot catalytic domain (30-397 amino acids) (Homo sapiens, UniProt P41279); test: High Throughput Cot Biochemical Assay (KinEASE TR-FRET); details: Cot KinEASE TR-FRET (HTRF) biochemical assay, 400 μM ATP; read-out: IC50 HTRF
T1 construct: Purified recombinant human Cot catalytic domain (30-397 amino acids) was purchased from Cama Biosciences; purchased Cama Biosciences (so in the source)
In short: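 Reaction of 5 nM recombinant human Cot catalytic domain (aa 30-397) with 1 μM STK3 peptide (XL665-labeled) and 400 μM ATP in 10 mM MOPS pH 7.0, 10 mM MgOAc, 1 mM DTT, 0.5 mg/mL BSA, 0.1% DMSO. Phosphopeptide detected by TR-FRET with europium anti-phospho antibody.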

T1 sequence (P41279 30-397): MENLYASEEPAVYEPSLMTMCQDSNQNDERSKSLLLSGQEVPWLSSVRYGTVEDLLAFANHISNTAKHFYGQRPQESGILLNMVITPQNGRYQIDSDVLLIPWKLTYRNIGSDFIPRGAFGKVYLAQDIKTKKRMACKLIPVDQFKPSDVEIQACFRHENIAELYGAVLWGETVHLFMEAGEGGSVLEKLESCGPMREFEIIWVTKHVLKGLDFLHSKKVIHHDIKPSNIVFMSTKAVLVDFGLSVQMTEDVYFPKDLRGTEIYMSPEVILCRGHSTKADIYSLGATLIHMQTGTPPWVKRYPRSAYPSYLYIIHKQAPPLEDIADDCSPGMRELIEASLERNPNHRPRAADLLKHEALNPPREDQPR

For `CC(C)(C)CNc1c(C#N)cnc2c(C#N)cc(N[C@@H](c3cccc(-c4ncco4)c3)c3cn(C4CC4)nn3)cc12` [Example 82, (S)-6-(((1-cyclopropyl-1H-1,2,3-triazol-4-yl)(3-(oxazol-2-yl)phenyl)methyl)amino)-4-(neopentylamino) quinoline-3,8-dicarbonitrile], which EC50 ([1]; Homo sapiens, Monocyte) is on record?
Its EC50 is 183 nM.

What about the IC50 [2] of the same compound?
Its IC50 is 1 nM.

For `CC(C)(C)CNc1c(C#N)cnc2c(Br)cc(N[C@@H](c3cccc(-c4ncco4)c3)c3cn(C4CC4)nn3)cc12` [Example 83, (S)-8-bromo-6-(((1-cyclopropyl-1H-1,2,3-triazol-4-yl) (3-(oxazol-2-yl)phenyl)methyl)amino)-4-(neopentylamino) quinoline-3-carbonitrile], which EC50 ([1]; Homo sapiens, Monocyte) is on record?
Its EC50 is 165 nM.

And the IC50 [2]?
The IC50 was 2 nM.

For `[2H][C@](Nc1cc(C#N)c2ncc(C#N)c(NCC(C)(C)C)c2c1)(c1ccccc1)c1cn(C2CC2)nn1` [Example 84, (S)-6-(((1-cyclopropyl-1H-1,2,3-triazol-4-yl) (phenyl)methyl-d)amino)-4-(neopentylamino) quinoline-3,8-dicarbonitrile], which EC50 ([1]; Homo sapiens, Monocyte) is on record?
The EC50 was 47 nM.

And the IC50 [2]?
The IC50 was 2 nM.

What does the source list for `[2H][C@@](Nc1cc(C(C)=O)c2ncc(C#N)c(Nc3cccc(Cl)c3)c2c1)(c1cn(C2CC2)nn1)c1ccccc1Cl` [Example 85, (S)-8-acetyl-6-(((2-chlorophenyl)(1-cyclopropyl-1H-1,2,3-triazol-4-yl)methyl-d)amino)-4-((3-chlorophenyl)amino)quinoline-3-carbonitrile]?
EC50 ([1]; Homo sapiens, Monocyte): 862 nM; IC50 [2]: 42 nM

With `[2H][C@@](Nc1cc(Cl)c2ncc(C#N)c(NCC(C)(C)C)c2c1)(c1cn(C23CC(C2)C3)nn1)c1ccccc1Cl` [Example 86, (S)-6-(((1-(bicyclo[1.1.1]pentan-1-yl)-1H-1,2,3-triazol-4-yl)(2-chlorophenyl)methyl-d)amino)-8-chloro-4-(neopentylamino) quinoline-3-carbonitrile] as the compound, how does the EC50 ([1]; Homo sapiens, Monocyte) read?
Its EC50 is 244 nM.

What about the IC50 [2] of the same compound?
Its IC50 is 22 nM.

`[2H]C(Nc1cc(Cl)c2ncc(C#N)c(NC(CCC#N)c3ccccc3)c2c1)(c1cn(C2CC2)nn1)c1ccccc1Cl` (stereo not shown) [Example 87, 8-chloro-6-(((2-chlorophenyl) (1-cyclopropyl-1H-1,2,3-triazol-4-yl)methyl-d)amino)-4-((3-cyano-1-phenylpropyl)amino) quinoline-3-carbonitrile] was tested. Which EC50 ([1]; Homo sapiens, Monocyte) did it give?
The EC50 was greater than 1000 nM.

What about the IC50 [2] of the same compound?
Its IC50 is greater than 10000 nM.

Which results are given for `[2H]C(Nc1cc(Cl)c2ncc(C#N)c(NC(CCC#N)c3ccccc3)c2c1)(c1cn(C2CC2)nn1)c1ccccc1Cl` (stereo not shown) [Example 88, 8-chloro-6-(((2-chlorophenyl) (1-cyclopropyl-1H-1,2,3-triazol-4-yl)methyl-d)amino)-4-((3-cyano-1-phenylpropyl)amino) quinoline-3-carbonitrile]?
EC50 [1]: > 1000 nM; IC50 [2]: 190 nM

What does the source list for `[2H][C@](Nc1cc(Cl)c2ncc(C#N)c(N[C@H](CCC#N)c3ccccc3)c2c1)(c1cn(C2CC2)nn1)c1ccccc1Cl` [Example 89, 8-chloro-6-(((2-chlorophenyl) (1-cyclopropyl-1H-1,2,3-triazol-4-yl)methyl-d)amino)-4-(((R)-3-cyano-1-phenylpropyl)amino) quinoline-3-carbonitrile]?
EC50 ([1]; Homo sapiens, Monocyte): 38 nM; IC50 [2]: 2 nM

How did the EC50 ([1]; Homo sapiens, Monocyte) turn out when `[2H][C@](Nc1cc(Cl)c2ncc(C#N)c(NCC(C)(C)C)c2c1)(c1cn(CC2CCO2)nn1)c1ccccc1Cl` (stereo partly shown) [Example 90, 8-chloro-6-(((2-chlorophenyl) (1-(oxetan-2-ylmethyl)-1H-1,2,3-triazol-4-yl)methyl-d)amino)-4-(neopentylamino) quinoline-3-carbonitrile] was run?
The EC50 was 287 nM.

What about the IC50 [2] of the same compound?
The IC50 was 26 nM.

With `[2H][C@](Nc1cc(Cl)c2ncc(C#N)c(NCC(C)(C)C)c2c1)(c1cn(CC(F)(F)F)nn1)c1ccccc1Cl` [Example 93, 8-chloro-6-(((2-chlorophenyl) (1-(2,2,2-trifluoroethyl)-1H-1,2,3-triazol-4-yl)methyl-d)amino)-4-(neopentylamino) quinoline-3-carbonitrile] as the compound, how does the EC50 ([1]; Homo sapiens, Monocyte) read?
The EC50 was 832 nM.

And the IC50 [2]?
Its IC50 is 59 nM.

Which results are given for `CC[C@@H](Nc1c(C#N)cnc2c(Cl)cc(N[C@@H](c3cccc(-c4ccccc4)c3)c3cn(C4CC4)nn3)cc12)c1ccccc1` [Example 94, 6-(((S)-[1,1'-biphenyl]-3-yl(1-cyclopropyl-1H-1,2,3-triazol-4-yl)methyl)amino)-8-chloro-4-(((R)-1-phenylpropyl)amino) quinoline-3-carbonitrile]?
EC50 ([1]; Homo sapiens, Monocyte): > 1000 nM; IC50 [2]: 12 nM

What does the source list for `CC(C)(C)CNc1c(C#N)cnc2c(Cl)cc(N[C@@H](c3cccc(-c4ccccc4)c3)c3cn(C4CC4)nn3)cc12` [Example 95, (S)-6-(([1,1'-biphenyl]-3-yl(1-cyclopropyl-1H-1,2,3-triazol-4-yl)methyl)amino)-8-chloro-4-(neopentylamino) quinoline-3-carbonitrile]?
EC50 ([1]; Homo sapiens, Monocyte): > 1000 nM; IC50 [2]: 24 nM

`CC[C@@H](Nc1c(C#N)cnc2c(Cl)cc(N[C@H](c3cn(C4CC4)nn3)c3ccccc3-c3ccccc3)cc12)c1ccccc1` [Example 96, 6-(((S)[1,1'-biphenyl]-2-yl(1-cyclopropyl-1H-1,2,3-triazol-4-yl)methyl)amino)-8-chloro-4-(((R)-1-phenylpropyl)amino) quinoline-3-carbonitrile] was tested. Which EC50 ([1]; Homo sapiens, Monocyte) did it give?
Its EC50 is greater than 1000 nM.

And the IC50 [2]?
Its IC50 is 778 nM.

How did the EC50 ([1]; Homo sapiens, Monocyte) turn out when `CC(C)(C)CNc1c(C#N)cnc2c(Cl)cc(N[C@H](c3cn(C4CC4)nn3)c3ccccc3-c3ccccc3)cc12` [Example 97, (S)-6-(([1,1'-biphenyl]-2-yl(1-cyclopropyl-1H-1,2,3-triazol-4-yl)methyl)amino)-8-chloro-4-(neopentylamino) quinoline-3-carbonitrile] was run?
Its EC50 is greater than 1000 nM.

And the IC50 [2]?
Its IC50 is 985 nM.

For `[2H][C@](Nc1cc(Cl)c2ncc(C#N)c(NCC(C)(C)C)c2c1)(c1cn(C2CC2(F)F)nn1)c1ccccc1Cl` (stereo partly shown) [Example 99, 8-chloro-6-(((2-chlorophenyl) (1-(2,2-difluorocyclopropyl)-1H-1,2,3-triazol-4-yl)methyl-d)amino)-4-(neopentylamino) quinoline-3-carbonitrile], which EC50 ([1]; Homo sapiens, Monocyte) is on record?
The EC50 was 454 nM.

And the IC50 [2]?
Its IC50 is 19 nM.

For `[2H][C@](Nc1cc(Cl)c2ncc(C#N)c(NCC(C)(C)C)c2c1)(c1cn(C2[C@H]3CN(C4COC4)C[C@@H]23)nn1)c1ccccc1Cl` (stereo partly drawn) [Example 100, 8-chloro-6-(((2-chlorophenyl) (1-((1R,5S,6r)-3-(oxetan-3-yl)-3-azabicyclo[3.1.0]hexan-6-yl)-1H-1,2,3-triazol-4-yl)methyl-d)amino)-4-(neopentylamino) quinoline-3-carbonitrile], which EC50 ([1]; Homo sapiens, Monocyte) is on record?
The EC50 was 337 nM.

What about the IC50 [2] of the same compound?
The IC50 was 16 nM.

How did the EC50 ([1]; Homo sapiens, Monocyte) turn out when `[2H][C@@](Nc1cc(Cl)c2ncc(C#N)c(NCC(C)(C)C)c2c1)(c1cn(C2CC2)nn1)c1c(F)cccc1Cl` [Example 101, (S)-8-chloro-6-(((2-chloro-6-fluorophenyl) (1-cyclopropyl-1H-1,2,3-triazol-4-yl)methyl-d)amino)-4-(neopentylamino) quinoline-3-carbonitrile] was run?
The EC50 was greater than 1000 nM.

What about the IC50 [2] of the same compound?
The IC50 was 83 nM.

With `[2H][C@](Nc1cc(I)c2ncc(C#N)c(NCC(C)(C)C)c2c1)(c1ccc(F)cc1)c1cn(C2CC2)nn1` [Example 102, (S)-6-(((1-cyclopropyl-1H-1,2,3-triazol-4-yl)(4-fluorophenyl)methyl-d)amino)-8-iodo-4-(neopentylamino) quinoline-3-carbonitrile] as the compound, how does the EC50 ([1]; Homo sapiens, Monocyte) read?
Its EC50 is greater than 1000 nM.

And the IC50 [2]?
Its IC50 is 58 nM.

With `[2H][C@@](Nc1cc(Cl)c2ncc(C#N)c(NCC(C)(C)C)c2c1)(c1cn(CC2(F)COC2)nn1)c1ccccc1Cl` [Example 103, 8-chloro-6-(((2-chlorophenyl) (1-((3-fluorooxetan-3-yl)methyl)-1H-1,2,3-triazol-4-yl)methyl-d)amino)-4-(neopentylamino) quinoline-3-carbonitrile] as the compound, how does the EC50 ([1]; Homo sapiens, Monocyte) read?
Its EC50 is 522 nM.

And the IC50 [2]?
Its IC50 is 50 nM.

For `[2H][C@@](Nc1cc(Cl)c2ncc(C#N)c(NCC(C)(C)C)c2c1)(c1cn(CC2(O)COC2)nn1)c1ccccc1Cl` [Example 104, 8-chloro-6-(((2-chlorophenyl) (1-((3-hydroxyoxetan-3-yl)methyl)-1H-1,2,3-triazol-4-yl)methyl-d)amino)-4-(neopentylamino) quinoline-3-carbonitrile], which EC50 ([1]; Homo sapiens, Monocyte) is on record?
Its EC50 is 584 nM.

What about the IC50 [2] of the same compound?
Its IC50 is 23 nM.

Which EC50 ([1]; Homo sapiens, Monocyte) does the source give for `[2H]C(Nc1cc(Cl)c2ncc(C#N)c(NCC(C)(C)C)c2c1)(c1cn(C2(C(F)(F)F)CC2)nn1)c1ccccc1Cl` (stereo not shown) [Example 106, 8-chloro-6-(((2-chlorophenyl) (1-(1-(trifluoromethyl)cyclopropyl)-1H-1,2,3-triazol-4-yl)methyl-d)amino)-4-(neopentylamino) quinoline-3-carbonitrile] here?
The EC50 was 826 nM.

What about the IC50 [2] of the same compound?
The IC50 was 58 nM.

Which EC50 ([1]; Homo sapiens, Monocyte) does the source give for `[2H]C(Nc1cc(Cl)c2ncc(C#N)c(NCC(C)(C)C)c2c1)(c1cn(C2(C)CC2)nn1)c1ccccc1Cl` (stereo not shown) [Example 107, 8-chloro-6-(((2-chlorophenyl)(1-(1-methylcyclopropyl)-1H-1,2,3-triazol-4-yl)methyl-d)amino)-4-(neopentylamino) quinoline-3-carbonitrile] here?
The EC50 was 272 nM.

And the IC50 [2]?
The IC50 was 14 nM.

For `[2H][C@@](Nc1cc(Cl)c2ncc(C#N)c(NCC(C)(C)C)c2c1)(c1cn(CC(=O)O)nn1)c1ccccc1Cl` [Example 108, (S)-2-(4-(((8-chloro-3-cyano-4-(neopentylamino)quinolin-6-yl)amino)(2-chlorophenyl)methyl-d)-1H-1,2,3-triazol-1-yl)acetic acid], which EC50 ([1]; Homo sapiens, Monocyte) is on record?
The EC50 was greater than 1000 nM.

And the IC50 [2]?
The IC50 was 48 nM.
